# From BigSolDB 2.1
structure (smiles),measurement,setting,value
O=C(O)c1cc2ccccc2[nH]1,solubility (mole fraction),"in 1,4-dioxane, 286.35 K",0.00276
same,solubility (mole fraction),"in 1,4-dioxane, 291.25 K",0.00343
same,solubility (mole fraction),"in 1,4-dioxane, 297.05 K",0.00427
same,solubility (mole fraction),"in 1,4-dioxane, 301.95 K",0.00476
same,solubility (mole fraction),"in 1,4-dioxane, 306.95 K",0.0052
same,solubility (mole fraction),"in 1,4-dioxane, 312.15 K",0.00592
same,solubility (mole fraction),"in 1,4-dioxane, 317.25 K",0.00636
same,solubility (mole fraction),"in 1,4-dioxane, 321.65 K",0.00689
same,solubility (mole fraction),"in 1,4-dioxane, 326.55 K",0.00728
same,solubility (mole fraction),"in 1,4-dioxane, 331.95 K",0.00791
same,solubility (mole fraction),"in 1,4-dioxane, 336.65 K",0.00866
same,solubility (mole fraction),"in dichloromethane, 283.15 K",0.000684
same,solubility (mole fraction),"in dichloromethane, 287.15 K",0.000724
same,solubility (mole fraction),"in dichloromethane, 292.75 K",0.000873
same,solubility (mole fraction),"in dichloromethane, 295.65 K",0.00104
same,solubility (mole fraction),"in dichloromethane, 299.05 K",0.00119
same,solubility (mole fraction),"in dichloromethane, 302.65 K",0.00134
same,solubility (mole fraction),"in dichloromethane, 307.25 K",0.00168
same,solubility (mole fraction),"in dichloromethane, 313.15 K",0.00224
same,solubility (mole fraction),"in ethanol, 278.15 K",0.0569
same,solubility (mole fraction),"in ethanol, 283.15 K",0.062
same,solubility (mole fraction),"in ethanol, 287.95 K",0.0666
same,solubility (mole fraction),"in ethanol, 292.75 K",0.0701
same,solubility (mole fraction),"in ethanol, 297.95 K",0.078
same,solubility (mole fraction),"in ethanol, 303.05 K",0.0816
same,solubility (mole fraction),"in ethanol, 308.35 K",0.0881
same,solubility (mole fraction),"in ethanol, 313.25 K",0.0974
same,solubility (mole fraction),"in ethanol, 318.65 K",0.102
same,solubility (mole fraction),"in ethanol, 324.95 K",0.116
same,solubility (mole fraction),"in ethanol, 329.85 K",0.12
same,solubility (mole fraction),"in ethanol, 336.25 K",0.135
same,solubility (mole fraction),"in ethanol, 342.75 K",0.148
same,solubility (mole fraction),"in ethanol, 348.25 K",0.154
same,solubility (mole fraction),"in ethanol, 353.15 K",0.165
same,solubility (mole fraction),"in ethyl acetate, 284.05 K",0.0433
same,solubility (mole fraction),"in ethyl acetate, 290.45 K",0.06
same,solubility (mole fraction),"in ethyl acetate, 294.65 K",0.0735
same,solubility (mole fraction),"in ethyl acetate, 299.55 K",0.0865
same,solubility (mole fraction),"in ethyl acetate, 304.65 K",0.1
same,solubility (mole fraction),"in ethyl acetate, 309.35 K",0.108
same,solubility (mole fraction),"in ethyl acetate, 313.95 K",0.116
same,solubility (mole fraction),"in ethyl acetate, 318.65 K",0.121
same,solubility (mole fraction),"in ethyl acetate, 324.35 K",0.128
same,solubility (mole fraction),"in ethyl acetate, 328.75 K",0.134
same,solubility (mole fraction),"in ethyl acetate, 333.65 K",0.14
same,solubility (mole fraction),"in isopropanol, 278.35 K",0.0412
same,solubility (mole fraction),"in isopropanol, 285.15 K",0.0525
same,solubility (mole fraction),"in isopropanol, 291.05 K",0.0606
same,solubility (mole fraction),"in isopropanol, 298.15 K",0.0701
same,solubility (mole fraction),"in isopropanol, 305.55 K",0.0855
same,solubility (mole fraction),"in isopropanol, 310.15 K",0.0949
same,solubility (mole fraction),"in isopropanol, 315.75 K",0.108
same,solubility (mole fraction),"in isopropanol, 321.35 K",0.119
same,solubility (mole fraction),"in isopropanol, 328.65 K",0.131
same,solubility (mole fraction),"in isopropanol, 333.35 K",0.149
same,solubility (mole fraction),"in isopropanol, 338.75 K",0.161
same,solubility (mole fraction),"in isopropanol, 342.25 K",0.171
same,solubility (mole fraction),"in isopropanol, 348.15 K",0.191
same,solubility (mole fraction),"in isopropanol, 353.25 K",0.201
same,solubility (mole fraction),"in isopropanol, 358.15 K",0.219
same,solubility (mole fraction),"in methanol, 278.15 K",0.0679
same,solubility (mole fraction),"in methanol, 283.35 K",0.0695
same,solubility (mole fraction),"in methanol, 288.95 K",0.0723
same,solubility (mole fraction),"in methanol, 293.25 K",0.0752
same,solubility (mole fraction),"in methanol, 298.15 K",0.0856
same,solubility (mole fraction),"in methanol, 303.35 K",0.0925
same,solubility (mole fraction),"in methanol, 307.85 K",0.102
same,solubility (mole fraction),"in methanol, 312.95 K",0.118
same,solubility (mole fraction),"in methanol, 317.75 K",0.135
same,solubility (mole fraction),"in methanol, 323.15 K",0.159
same,solubility (mole fraction),"in methanol, 328.25 K",0.189
same,solubility (mole fraction),"in methanol, 333.15 K",0.23
same,solubility (mole fraction),"in n-butanol, 278.15 K",0.0478
same,solubility (mole fraction),"in n-butanol, 285.35 K",0.0538
same,solubility (mole fraction),"in n-butanol, 291.05 K",0.0605
same,solubility (mole fraction),"in n-butanol, 298.55 K",0.0687
same,solubility (mole fraction),"in n-butanol, 305.25 K",0.0758
same,solubility (mole fraction),"in n-butanol, 310.75 K",0.0832
same,solubility (mole fraction),"in n-butanol, 315.15 K",0.0909
same,solubility (mole fraction),"in n-butanol, 321.75 K",0.101
same,solubility (mole fraction),"in n-butanol, 328.35 K",0.112
same,solubility (mole fraction),"in n-butanol, 333.95 K",0.125
same,solubility (mole fraction),"in n-butanol, 338.15 K",0.14
same,solubility (mole fraction),"in n-butanol, 342.45 K",0.143
same,solubility (mole fraction),"in n-butanol, 348.25 K",0.16
same,solubility (mole fraction),"in n-butanol, 353.45 K",0.174
same,solubility (mole fraction),"in n-butanol, 358.15 K",0.19
same,solubility (mole fraction),"in n-propanol, 278.25 K",0.0437
same,solubility (mole fraction),"in n-propanol, 285.45 K",0.0521
same,solubility (mole fraction),"in n-propanol, 291.35 K",0.0588
same,solubility (mole fraction),"in n-propanol, 298.15 K",0.068
same,solubility (mole fraction),"in n-propanol, 305.75 K",0.0801
same,solubility (mole fraction),"in n-propanol, 311.25 K",0.088
same,solubility (mole fraction),"in n-propanol, 317.75 K",0.0993
same,solubility (mole fraction),"in n-propanol, 322.15 K",0.105
same,solubility (mole fraction),"in n-propanol, 328.05 K",0.115
same,solubility (mole fraction),"in n-propanol, 333.55 K",0.128
same,solubility (mole fraction),"in n-propanol, 339.15 K",0.138
same,solubility (mole fraction),"in n-propanol, 344.85 K",0.151
same,solubility (mole fraction),"in n-propanol, 349.75 K",0.162
same,solubility (mole fraction),"in n-propanol, 353.15 K",0.176
same,solubility (mole fraction),"in n-propanol, 358.15 K",0.18
same,solubility (mole fraction),"in toluene, 287.85 K",0.00052
same,solubility (mole fraction),"in toluene, 293.65 K",0.000645
same,solubility (mole fraction),"in toluene, 297.95 K",0.000722
same,solubility (mole fraction),"in toluene, 302.85 K",0.000786
same,solubility (mole fraction),"in toluene, 307.05 K",0.000898
same,solubility (mole fraction),"in toluene, 311.55 K",0.000989
same,solubility (mole fraction),"in toluene, 313.55 K",0.00104
same,solubility (mole fraction),"in toluene, 317.45 K",0.00113
same,solubility (mole fraction),"in toluene, 325.15 K",0.00155
same,solubility (mole fraction),"in toluene, 337.85 K",0.00295
same,solubility (mole fraction),"in toluene, 342.55 K",0.00379
same,solubility (mole fraction),"in toluene, 348.25 K",0.00427
same,solubility (mole fraction),"in toluene, 360.15 K",0.00642
same,solubility (mole fraction),"in water, 293.15 K",6.79e-05
same,solubility (mole fraction),"in water, 298.15 K",6.88e-05
same,solubility (mole fraction),"in water, 303.15 K",7.03e-05
same,solubility (mole fraction),"in water, 308.05 K",7.17e-05
same,solubility (mole fraction),"in water, 312.65 K",7.88e-05
same,solubility (mole fraction),"in water, 318.15 K",9.36e-05
same,solubility (mole fraction),"in water, 323.15 K",0.000115
same,solubility (mole fraction),"in water, 328.15 K",0.000149
same,solubility (mole fraction),"in water, 333.15 K",0.0002
same,solubility (mole fraction),"in water, 338.15 K",0.00028
same,solubility (mole fraction),"in water, 343.15 K",0.000409
same,solubility (mole fraction),"in water, 348.15 K",0.000616
same,solubility (mole fraction),"in water, 353.15 K",0.000962
same,solubility (mole fraction),"in water, 358.15 K",0.00155
